Results published in US20060252807A1, “Novel ortho-terphenyl inhibitors of p38 kinase and methods of treating inflammatory disorders” (Kalypsys, Inc., priority 2005, published 2006).

target: T1, active p38 alpha enzyme (Upstate Biotechnology) (Homo sapiens, UniProt Q16539); assay: p38α biochemical assay (ATP turnover, luminescent detection, Cambrex PKlight); details: p38α kinase; Table 1 Biological Activity
T1 construct: purchased Upstate Biotechnology
In short: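 Luminescent PKlight readout of total ATP consumption follows a 2 h, 30C kinase reaction. Enzyme and MapkapK2 substrate run with 1.4 uM ATP (final) in buffer containing Mg2+, Ca2+, chelators, glycerol, reducing agent and BSA; test compounds added by pintool from DMSO.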

T1 sequence (Q16539 whole entry): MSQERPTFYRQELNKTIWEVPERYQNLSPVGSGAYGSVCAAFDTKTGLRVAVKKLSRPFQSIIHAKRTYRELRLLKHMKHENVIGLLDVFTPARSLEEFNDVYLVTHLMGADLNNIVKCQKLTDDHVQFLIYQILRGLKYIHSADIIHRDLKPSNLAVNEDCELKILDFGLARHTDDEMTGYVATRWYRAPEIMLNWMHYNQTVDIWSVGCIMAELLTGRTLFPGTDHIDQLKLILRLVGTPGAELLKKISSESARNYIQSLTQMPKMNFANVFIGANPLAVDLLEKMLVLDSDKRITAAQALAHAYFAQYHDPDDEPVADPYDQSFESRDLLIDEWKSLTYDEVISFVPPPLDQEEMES

IC50 [µM] | SMILES
> 1 | CC(C)NC(=O)c1csc(-c2c(-c3ccc(F)cc3)noc2CNC(=O)C(C)c2cccc(C(=O)c3ccccc3)c2)n1 (stereo not drawn) [Example 805]
> 1 | CC(C)NC(=O)c1csc(-c2c(-c3ccc(F)cc3)noc2CNC(=O)C2Cc3ccccc3CN2C(=O)OC(C)(C)C)n1 (stereo not drawn) [Example 808]
≤ 1 | CC(C)NC(=O)c1csc(-c2c(-c3ccc(F)cc3)noc2CN)n1 [Example 810]
≤ 1 | CC(C)NC(=O)c1csc(-c2c(-c3ccc(F)cc3)n[nH]c2C2CCN(C(=O)C=O)CC2)n1 [Example 813]
≤ 1 | CC(C)NC(=O)c1csc(-c2c(-c3ccc(F)cc3)n[nH]c2C2CCN(C(=O)C(C)O)CC2)n1 (stereo not drawn) [Example 815]
> 1 | CCC(=O)C(=O)N1CCC(c2[nH]nc(-c3ccc(F)cc3)c2-c2nc(C(=O)NC(C)C)cs2)CC1 [Example 816]
> 1 | CC(C)CC(=O)N1CCC(c2[nH]nc(-c3ccc(F)cc3)c2-c2nc(C(=O)NC(C)C)cs2)CC1 [Example 818]
> 1 | CC(C)NC(=O)c1csc(-c2c(-c3ccc(F)cc3)n[nH]c2C2CCN(C(=O)c3cnc[nH]3)CC2)n1 [Example 819]
≤ 1 | CC(C)NC(=O)c1csc(-c2c(-c3ccc(F)cc3)n[nH]c2C2CCN(C(=O)C(O)CCl)CC2)n1 (stereo not drawn) [Example 829]
> 1 | Cc1cc(C(=O)N2CCC(c3[nH]nc(-c4ccc(F)cc4)c3-c3nc(C(=O)NC(C)C)cs3)CC2)n[nH]1 [Example 830]
≤ 1 | CCOC(=O)CC(=O)N1CCC(c2[nH]nc(-c3ccc(F)cc3)c2-c2nc(C(=O)NC(C)C)cs2)CC1 [Example 834]
≤ 1 | CC(C)NC(=O)c1csc(-c2c(-c3ccc(F)cc3)n[nH]c2C2CCN(C(=O)c3cccc(O)c3)CC2)n1 [Example 838]
> 1 | CC(C)NC(=O)c1csc(-c2c(-c3ccc(F)cc3)n[nH]c2C2CCN(C(=O)c3ccccc3O)CC2)n1 [Example 839]
> 1 | CC(C)NC(=O)c1csc(-c2c(-c3ccc(F)cc3)n[nH]c2C2CCN(C(=O)c3ccc(F)cc3)CC2)n1 [Example 840]
> 1 | CC(C)NC(=O)c1csc(-c2c(-c3ccc(F)cc3)n[nH]c2C2CCN(C(=O)c3cccc(F)c3)CC2)n1 [Example 841]
> 1 | CCCCCCCC(=O)N1CCC(c2[nH]nc(-c3ccc(F)cc3)c2-c2nc(C(=O)NC(C)C)cs2)CC1 [Example 842]
> 1 | CC(C)NC(=O)c1csc(-c2c(-c3ccc(F)cc3)n[nH]c2C2CCN(C(=O)c3cccc(C#N)c3)CC2)n1 [Example 844]
> 1 | CC(C)NC(=O)c1csc(-c2c(-c3ccc(F)cc3)n[nH]c2C2CCN(C(=O)/C=C/c3ccccc3)CC2)n1 [Example 845]

IC50 [µM] | SMILES
≤ 1 | CC(C)NC(=O)c1csc(-c2c(-c3ccc(F)cc3)n[nH]c2C2CCN(C(=O)c3ccccc3C=O)CC2)n1 [Example 846]
≤ 1 | CC(C)NC(=O)c1csc(-c2c(-c3ccc(F)cc3)n[nH]c2C2CCN(C(=O)c3ccc(C=O)cc3)CC2)n1 [Example 847]
> 1 | Cc1ccccc1CC(=O)N1CCC(c2[nH]nc(-c3ccc(F)cc3)c2-c2nc(C(=O)NC(C)C)cs2)CC1 [Example 849]
> 1 | Cc1ccc(C)c(C(=O)N2CCC(c3[nH]nc(-c4ccc(F)cc4)c3-c3nc(C(=O)NC(C)C)cs3)CC2)c1 [Example 851]
> 1 | CCc1ccc(C(=O)N2CCC(c3[nH]nc(-c4ccc(F)cc4)c3-c3nc(C(=O)NC(C)C)cs3)CC2)cc1 [Example 854]
> 1 | Cc1cccc(C(=O)N2CCC(c3[nH]nc(-c4ccc(F)cc4)c3-c3nc(C(=O)NC(C)C)cs3)CC2)c1O [Example 856]
≤ 1 | CC(C)NC(=O)c1csc(-c2c(-c3ccc(F)cc3)n[nH]c2C2CCN(C(=O)Cc3ccccc3O)CC2)n1 [Example 857]
> 1 | Cc1ccc(O)c(C(=O)N2CCC(c3[nH]nc(-c4ccc(F)cc4)c3-c3nc(C(=O)NC(C)C)cs3)CC2)c1 [Example 859]
> 1 | Cc1ccc(C(=O)N2CCC(c3[nH]nc(-c4ccc(F)cc4)c3-c3nc(C(=O)NC(C)C)cs3)CC2)cc1F [Example 863]
> 1 | CC(C)NC(=O)c1csc(-c2c(-c3ccc(F)cc3)n[nH]c2C2CCN(C(=O)c3ccccc3Cl)CC2)n1 [Example 865]
≤ 1 | CC(C)NC(=O)c1csc(-c2c(-c3ccc(F)cc3)n[nH]c2C2CCN(C(=O)c3cccnc3Cl)CC2)n1 [Example 867]
≤ 1 | CC(C)NC(=O)c1csc(-c2c(-c3ccc(F)cc3)n[nH]c2C2CCN(C(=O)c3cc(Cl)ccn3)CC2)n1 [Example 869]
≤ 1 | CC(C)NC(=O)c1csc(-c2c(-c3ccc(F)cc3)n[nH]c2C2CCN(C(=O)c3ccncc3Cl)CC2)n1 [Example 870]
> 1 | CC(C)NC(=O)c1csc(-c2c(-c3ccc(F)cc3)n[nH]c2C2CCN(C(=O)c3cccc(F)c3F)CC2)n1 [Example 872]
> 1 | CC(C)NC(=O)c1csc(-c2c(-c3ccc(F)cc3)n[nH]c2C2CCN(C(=O)c3ccc(F)cc3F)CC2)n1 [Example 873]
> 1 | CC(C)NC(=O)c1csc(-c2c(-c3ccc(F)cc3)n[nH]c2C2CCN(C(=O)c3cc4ccccc4o3)CC2)n1 [Example 877]
> 1 | CC(C)NC(=O)c1csc(-c2c(-c3ccc(F)cc3)n[nH]c2C2CCN(C(=O)C(Cl)(Cl)Cl)CC2)n1 [Example 879]

The remaining lines, values behind:

SMILES | IC50 [µM]
CC(C)NC(=O)c1csc(-c2c(-c3ccc(F)cc3)noc2CNC(=O)C(Cc2ccccc2)NC(=O)OC(C)(C)C)n1 (stereo not drawn) [Example 806] | > 1
CC(C)NC(=O)c1csc(-c2c(-c3ccc(F)cc3)noc2CNC(=O)C(Cc2ccccn2)NC(=O)OC(C)(C)C)n1 (stereo not drawn) [Example 807] | > 1
CC(C)NC(=O)c1csc(-c2c(-c3ccc(F)cc3)noc2CNC(=O)C(Cc2ccc(O)cc2)NC(=O)OC(C)(C)C)n1 (stereo not drawn) [Example 809] | > 1
CC(C)NC(=O)c1csc(-c2c(-c3ccc(F)cc3)n[nH]c2C2CCN(C(=O)CC#N)CC2)n1 [Example 814] | ≤ 1
CC(C)NC(=O)c1csc(-c2c(-c3ccc(F)cc3)n[nH]c2C2CCN(C(=O)C(C)(C)C)CC2)n1 [Example 817] | ≤ 1
CC(C)NC(=O)c1csc(-c2c(-c3ccc(F)cc3)n[nH]c2C2CCN(C(=O)C3=CCCC3)CC2)n1 [Example 821] | > 1
CC(C)NC(=O)c1csc(-c2c(-c3ccc(F)cc3)n[nH]c2C2CCN(C(=O)C3CCCO3)CC2)n1 (stereo not drawn) [Example 823] | ≤ 1
CC(C)NC(=O)c1csc(-c2c(-c3ccc(F)cc3)n[nH]c2C2CCN(C(=O)c3ccccc3)CC2)n1 [Example 825] | ≤ 1
CC(C)NC(=O)c1csc(-c2c(-c3ccc(F)cc3)n[nH]c2C2CCN(C(=O)c3cn(C)cn3)CC2)n1 [Example 831] | > 1
CC(C)NC(=O)c1csc(-c2c(-c3ccc(F)cc3)n[nH]c2C2CCN(C(=O)C3CCCCC3)CC2)n1 [Example 832] | > 1
CC(C)NC(=O)c1csc(-c2c(-c3ccc(F)cc3)n[nH]c2C2CCN(C(=O)c3cscn3)CC2)n1 [Example 833] | ≤ 1
Cc1cccc(C(=O)N2CCC(c3[nH]nc(-c4ccc(F)cc4)c3-c3nc(C(=O)NC(C)C)cs3)CC2)c1 [Example 835] | > 1
Cc1ccccc1C(=O)N1CCC(c2[nH]nc(-c3ccc(F)cc3)c2-c2nc(C(=O)NC(C)C)cs2)CC1 [Example 836] | ≤ 1
Cc1ccc(C(=O)N2CCC(c3[nH]nc(-c4ccc(F)cc4)c3-c3nc(C(=O)NC(C)C)cs3)CC2)cc1 [Example 837] | > 1
Cc1ccc(C(=O)N2CCC(c3[nH]nc(-c4ccc(F)cc4)c3-c3nc(C(=O)NC(C)C)cs3)CC2)c(C)c1 [Example 848] | > 1
Cc1cccc(C(=O)N2CCC(c3[nH]nc(-c4ccc(F)cc4)c3-c3nc(C(=O)NC(C)C)cs3)CC2)c1C [Example 850] | > 1

SMILES | IC50 [µM]
Cc1cc(C)cc(C(=O)N2CCC(c3[nH]nc(-c4ccc(F)cc4)c3-c3nc(C(=O)NC(C)C)cs3)CC2)c1 [Example 852] | > 1
Cc1ccc(C(=O)N2CCC(c3[nH]nc(-c4ccc(F)cc4)c3-c3nc(C(=O)NC(C)C)cs3)CC2)cc1C [Example 853] | > 1
COc1ccc(C(=O)N2CCC(c3[nH]nc(-c4ccc(F)cc4)c3-c3nc(C(=O)NC(C)C)cs3)CC2)cc1 [Example 855] | > 1
CC(C)NC(=O)c1csc(-c2c(-c3ccc(F)cc3)n[nH]c2C2CCN(C(=O)Cc3cccc(O)c3)CC2)n1 [Example 858] | > 1
CC(C)NC(=O)c1csc(-c2c(-c3ccc(F)cc3)n[nH]c2C2CCN(C(=O)c3cc(O)ccc3O)CC2)n1 [Example 860] | > 1
CC(C)NC(=O)c1csc(-c2c(-c3ccc(F)cc3)n[nH]c2C2CCN(C(=O)c3cccc(O)c3O)CC2)n1 [Example 861] | > 1
CC(C)NC(=O)c1csc(-c2c(-c3ccc(F)cc3)n[nH]c2C2CCN(C(=O)c3ccc(O)cc3O)CC2)n1 [Example 862] | > 1
Cc1ccc(F)cc1C(=O)N1CCC(c2[nH]nc(-c3ccc(F)cc3)c2-c2nc(C(=O)NC(C)C)cs2)CC1 [Example 864] | > 1
CC(C)NC(=O)c1csc(-c2c(-c3ccc(F)cc3)n[nH]c2C2CCN(C(=O)c3ccc(Cl)nc3)CC2)n1 [Example 866] | > 1
CC(C)NC(=O)c1csc(-c2c(-c3ccc(F)cc3)n[nH]c2C2CCN(C(=O)c3ccnc(Cl)c3)CC2)n1 [Example 868] | ≤ 1
CC(C)NC(=O)c1csc(-c2c(-c3ccc(F)cc3)n[nH]c2C2CCN(C(=O)c3c(F)cccc3F)CC2)n1 [Example 871] | > 1
CC(C)NC(=O)c1csc(-c2c(-c3ccc(F)cc3)n[nH]c2C2CCN(C(=O)c3cc(F)cc(F)c3)CC2)n1 [Example 874] | > 1
CC(C)NC(=O)c1csc(-c2c(-c3ccc(F)cc3)n[nH]c2C2CCN(C(=O)c3ccc(F)c(F)c3)CC2)n1 [Example 875] | > 1
CC(CC(=O)N1CCC(c2[nH]nc(-c3ccc(F)cc3)c2-c2nc(C(=O)NC(C)C)cs2)CC1)CC(C)(C)C (stereo not drawn) [Example 876] | > 1
CC(C)NC(=O)c1csc(-c2c(-c3ccc(F)cc3)n[nH]c2C2CCN(C(=O)C3CCc4ccccc43)CC2)n1 (stereo not drawn) [Example 878] | > 1
